These results are taken from ChEMBL document CHEMBL1143954, “Characterization of thyroid hormone receptor alpha (TRalpha)-specific analogs with varying inner- and outer-ring substituents” (Bioorg Med Chem, 2008).

As usually defined, the pEC50 is the negative decadic logarithm of the EC50, by convention in mol/L. By pKd is commonly meant the Kd on a negative log10 scale, so that one unit is a factor of ten. Read a low pKd as a high Kd.

Assay [1] addresses T1, Thyroid hormone receptor beta (Homo sapiens, UniProt P10828).
T1 sequence (P10828 whole entry): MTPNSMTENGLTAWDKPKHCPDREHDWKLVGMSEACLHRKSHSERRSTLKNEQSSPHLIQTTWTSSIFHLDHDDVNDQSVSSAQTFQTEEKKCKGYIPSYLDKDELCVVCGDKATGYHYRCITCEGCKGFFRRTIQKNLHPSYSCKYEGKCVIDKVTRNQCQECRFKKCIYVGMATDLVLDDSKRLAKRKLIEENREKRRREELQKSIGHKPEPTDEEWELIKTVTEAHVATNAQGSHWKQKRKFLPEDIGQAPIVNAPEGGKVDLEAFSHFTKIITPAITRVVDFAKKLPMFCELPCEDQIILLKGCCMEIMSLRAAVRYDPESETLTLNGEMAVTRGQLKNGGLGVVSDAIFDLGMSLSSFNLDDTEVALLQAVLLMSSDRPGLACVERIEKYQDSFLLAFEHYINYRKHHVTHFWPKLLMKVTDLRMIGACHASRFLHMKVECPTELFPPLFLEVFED

Assay [2] concerns the target T1, Thyroid hormone receptor beta. This is another data set of the same source.
Assay [3] addresses T2, Thyroid hormone receptor alpha (Homo sapiens, UniProt P10827).
T2 sequence (P10827 whole entry): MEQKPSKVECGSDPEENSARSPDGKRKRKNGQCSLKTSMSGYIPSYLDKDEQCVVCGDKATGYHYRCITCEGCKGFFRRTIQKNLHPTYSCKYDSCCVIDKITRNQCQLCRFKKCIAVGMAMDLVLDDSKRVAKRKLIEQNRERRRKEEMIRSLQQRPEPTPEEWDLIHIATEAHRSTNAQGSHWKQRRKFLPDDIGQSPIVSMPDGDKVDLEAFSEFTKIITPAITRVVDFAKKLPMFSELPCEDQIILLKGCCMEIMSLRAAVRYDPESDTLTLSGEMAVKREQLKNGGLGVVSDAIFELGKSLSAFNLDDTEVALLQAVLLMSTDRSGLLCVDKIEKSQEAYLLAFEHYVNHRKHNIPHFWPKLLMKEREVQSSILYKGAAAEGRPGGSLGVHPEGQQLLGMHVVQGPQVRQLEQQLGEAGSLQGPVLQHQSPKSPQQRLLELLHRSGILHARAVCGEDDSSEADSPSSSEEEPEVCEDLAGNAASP

For assay [4], the target named is T1, Thyroid hormone receptor beta. The source holds these as a separate data set.
In assay [5] the target is T2, Thyroid hormone receptor alpha. This is another data set of the same source.
Description: Effect on human TRalpha transactivation activity in U2OS cells by luciferase reporter assay
Assay [6] shares this target. This is another data set of the same source.
Description: Effect on human TRalpha transactivation activity in HeLa cells by luciferase reporter assay

Structures are written as SMILES. pEC50, pKd: −log10 of the molar value. A value given as a limit tells only on which side of the number the result lay.

Take `O=C1NC(=O)C(Cc2cc(I)c(Oc3ccc(O)c(Br)c3)c(I)c2)N1` (centres undefined): the negative-log EC50 (pEC50) in assay [1] was 5.28; in assay [2] it was 6.28; in assay [5], 6.69; in assay [6], 7.36. The negative logarithm of the Kd (pKd) in assay [3] is 7.37; in assay [4], 7.17.

As for `O=C1NC(=O)C(Cc2cc(I)c(Oc3ccc(O)c(I)c3)c(I)c2)N1` (centres undefined), the pEC50 in assay [1] is 5.70; in assay [2], 6.67; in assay [5], 6.98; in assay [6], 7.68. Further, the pKd was 7.62 in assay [3] and 7.44 in assay [4].

For the compound `O=C1NC(=O)C(Cc2cc(I)c(Oc3ccc(O)c(C4CC4)c3)c(I)c2)N1` (centres undefined), the pEC50 in assay [1] is 5.70; in assay [2], 7.00; in assay [5], 6.84; in assay [6] it was 7.41. For the same compound, the figures for the pKd in assay [3] and in assay [4] were 7.60 and 7.31, respectively.

With `CC(C)c1cc(Oc2c(I)cc(CC3NC(=O)NC3=O)cc2I)ccc1O` (centres undefined), the negative-log EC50 (pEC50) in assay [1] was 6.41; in assay [2] it was 7.24; in assay [5], 7.47; in assay [6] it was 7.96. Also, the pKd in assay [3] is 8.92; in assay [4], 8.77.

In the case of `CC(C)c1cc(Oc2c(Br)cc(CC3NC(=O)NC3=O)cc2Br)ccc1O` (centres undefined), the pEC50 in assay [1] was 6.38; in assay [2], 7.49; in assay [5], 6.89; in assay [6], 8.08. Further, the pKd is 7.77 in assay [3] and 7.74 in assay [4].

Turning to `Cc1cc(Oc2c(I)cc(CC3NC(=O)NC3=O)cc2I)ccc1O` (centres undefined), the pEC50 in assay [1] was 5.40; in assay [2], 6.74; in assay [5], 6.84; in assay [6], 7.57. For the same compound, the figures for the pKd in assay [3] and in assay [4] were 7.38 and 7.28, respectively.

Take `CCc1cc(Oc2c(I)cc(CC3NC(=O)NC3=O)cc2I)ccc1O` (centres undefined): the pEC50 in assay [1] is 5.85; in assay [2], 7.57; in assay [5] it was 7.06; in assay [6], 8.00. For the same compound, the figures for the pKd in assay [3] and in assay [4] were 7.82 and 7.74, respectively.

On to `COc1cc(Oc2c(I)cc(CC3NC(=O)NC3=O)cc2I)ccc1O` (centres undefined), for which the pEC50 in assay [1] is 5.10; in assay [2], 6.58; in assay [5], 6.06; in assay [6], 7.38. The results for the negative-log Kd (pKd) in assay [3] and in assay [4] were 7.09 and 6.92, respectively.

On to `O=C1NC(=O)C(Cc2cc(I)c(Oc3ccc(O)cc3)c(I)c2)N1` (centres undefined), for which the pEC50 in assay [1] is below 4.70; in assay [2], below 5.00; in assay [5] it was below 4.70; in assay [6] it was below 5.00. Further, the values for the negative logarithm of the Kd (pKd) in assay [3] and in assay [4] were 5.77 and 5.70, respectively.
